Patent US6372727B1, “Metalloporphyrin treatment of neurologic disease” (UAB Research Foundation, priority 1999, dated 2002)

Legend:
[1] = Peroxynitrite-mediated nitration of GYA peptide; format: biochemical; details: 2 mM GYA; for effect on nitration: 10 μM MP, pH 7.4; for enhancement of nitration yield: 10 μM MP or SOD subunit, 1 mM CO2, pH 7.4, 37° C.
Protocol: Nitration efficiency, defined as the moles of nitrated GYA peptide formed per mole of peroxynitrite added, was determined at a fixed concentration of 10 μM MP or Cu,Zn SOD subunit, or 1 mM CO2 as described below. Increasing amounts of peroxynitrite were added in a sequential manner in order to determine whether nitration efficiency varied with concentration and to determine whether nitration catalysis was maintained with multiple additions (see INSET). Nitration efficiency was calculated for each peroxynitrite addition; the values shown are the average of all nine peroxynitrite additions. Absorbance changes were monitored simultaneously at 380, 430, and 460 nm.
(§1) For nitration of GYA peptide (see FIG. 6), reaction solutions contained 2 mM GYA and 10 μM of the indicated MP in 1.4 ml of 0.1 M potassium phosphate, pH 7.4 at 37° C. Comparisons with two previously characterized nitration catalysts, human Cu,Zn superoxide dismutase (hCu,Zn SOD) and carbon dioxide, were made using 10 μM of SOD subunit and 25 mM potassium bicarbonate, respectively, which was pH-adjusted to 7.4. This level of bicarbonate results in rapid saturation of the solution with carbon dioxide (˜1 mM). Solutions were placed into a rapidly stirred cuvette and nine bolus additions (50 μM×3, 100 μM×3, and 200 μM×3) of peroxynitrite were made sequentially while the absorbance was monitored. Increasing amounts of peroxynitrite were added in a sequential manner in order to determine whether nitration efficiency varied with concentration and to determine whether nitration catalysis was maintained with multiple additions (see FIG. 6 inset). Nitration efficiency was defined as the amount of nitropeptide formed per amount of peroxynitrite added and was calculated for each peroxynitrite addition; the values shown are the average of all nine peroxynitrite additions. The absorbance changes associated with nitrotyrosine peptide production were monitored simultaneously at 380, 430, and 460 nm. The extinction coefficients for nitrated GYA at pH 7.4 are 4,400 M^−1cm^−1 at 430 nm and 2,200 M^−1cm^−1 at both 380 and 460 nm. […] Wavelengths used to quantify nitrotyrosine production were chosen to minimize interference by the particular metalloporphyrin used. Experiments using HPA as a nitration target (FIG. 7) contained 8 mM HPA in either 0.1 M potassium phosphate, pH 7.4 or 0.1 M sodium borate, pH 9.1.
The relative abilities of several MPs to enhance nitration of the tripeptide GYA was compared using 10 μM MP and sequential bolus additions of 50 μM (×3), 100 μM (×3), and 200 μM (×3)peroxynitrite (FIG. 6, inset).

[2] = MP-catalyzed peroxynitrite decomposition monitored at 302 nm; format: biochemical; details: for Rate Constants for MP-Catalyzed Decomposition of Peroxynitrite (pH 7.4, 37° C.): 100 μM peroxynitrite, absence of added reductants
Protocol: Peroxynitrite (100 μM) was added to rapidly stirred cuvettes at 37° C. containing the indicated concentrations of MPs in 0.1 M potassium phosphate, pH 7.4. Ascorbate was added to 150 μM where indicated. Peroxynitrite decomposition was monitored at 302 nm using a Hewlett-Packard diode-array spectrophotometer. Apparent rates (kapparents^−1, average of n=3) were plotted versus MP concentration to determine rate constants in M^−1s^−1.
Reactions contained the indicated concentration of FeTCPPin 1.4 ml of 0.1 M potassium phosphate, pH 7.4 in the absence or presence to 150 μM ascorbic acid. Peroxynitrite (100 μM) was added to rapidly stirred cuvettes at 37° C. and the decay of peroxynitrite was monitored continuously at 302 nm. Decay data were fitted to the equation describing first order decay to obtain apparent decay rates (kapparent sec^−1). Apparent decay rates as a function of FeTCPP were fitted by linear regression and the rate constant was obtained slope of the line.
Peroxynitrite (100 μM) decomposition was determined at 302 nm using a Hewlett-Packard diode-array spectrophotometer fitted with a temperature-controlled cuvette chamber and a water-driven cuvette stirrer. Bolus additions of peroxynitrite were made to vigorously stirred cuvettes containing varying concentrations of MPs (see Table III) while data were collected at a rate of ten points/sec. […] Each reaction was repeated three times and only the first additions of peroxynitrite were averaged. Data were exported for fitting and plotting. Apparent rates of peroxynitrite decomposition were plotted as a function of metalloporphyrin concentration (as shown in FIG. 5) to determine concentration-independent rate constants at 37° C.
Rates of peroxynitrite (100 μM) decomposition were determined at different MP concentrations. Ascorbate was added to 150 μM where indicated. […] Apparent rate constants were plotted versus MP concentration (as in FIG. 5A,B) to determine true rate constants in M^−1s^−1±standard error.

cultured motor neurons = test: Protection of cultured motor neurons from growth factor withdrawal; format: cell-based; details: for level of protection compared with FeTCPP: 72 hr after trophic factor deprivation
Protocol: Culture Motor neurons were prepared from embryonic day 15 (E15) rat spinal cords by a combination of metrizamide gradient centrifugation and immunopanning with the monoclonal antibody IgG192 (Chandler et al., J. Biol. Chem. 259:6882-6889, 1984) as previously described (Estevez et al., J Neurosci 18:923-931, 1998; Henderson C E, Bloch-Gallego E, Camu W (1995): Purification and culture of embryonic motorneurons. In Cohen J, Wilkin G (eds): Neural Cell Culture: A Practical Approach. Oxford, England: IRL Press, pp 69-81). Long-term cultures of motor neurons were performed as described by Pennica et al. (Pennica et al., Neuron 17:63-74, 1996). Briefly, motor neurons were plated at a density of 200 cells/cm2 on 35 mm dishes precoated with polyornithine-laminin in Neurobasal medium supplemented with B27 (Life Technologies, Grand Island, N.Y.), 2% horse serum, 0.5 mM L-glutamine, 25 μM 2-mercaptoethanol and 25 μM L-glutamate. Every 3-4 days ¾ of the culture medium was replaced by fresh medium lacking L-glutamate and containing sufficient quantities of BDNF or FeTCPP to supplement the 2 ml of medium in the dish. More than 94% of the cells were immunoreactive for the p75 low-affinity neurotrophic receptor (p75NTR) and Islet ½, which are markers for motor neurons. The experiments were repeated at least 2 times using the same lot of Neurobasal medium and B 27 supplement.
The number of motor neurons with neurites longer than 4 soma diameters present in parallel cultures treated with BDNF at a final concentration of 100 pg/ml 24 h after plating or culture media replacement was considered 100% motor neuron survival. FeTCPP was resuspended in complete Neurobasal medium at a 5 mM concentration. Dilutions were performed of the stock solution to add 20 μl per dish.
Rat motor neurons survive many days in culture when brain-derived neurotrophic factor (BDNF) is added to the culture media. Because motor neurons are the cells that preferentially die in ALS, primary cultures of motor neurons represent the best non-animal model of ALS. Withdrawal of BDNF results in apoptotic death of >70% of motor neurons within 24 h. Cell death was correlated with expression of the neuronal form of nitric oxide synthase (nNOS) and the production of peroxynitrite, as evidenced by protein tyrosine nitration. When FeTCPP is added to the culture media in place of BDNF and motor neuron survival is assessed at 24 h, some protection is seen at concentrations as low as 0.01 μM (FIG. 10A). […] Additionally, a comparison of the effect of FETCPP and its tetra-methyl ester derivative, TMeO-FeTCPP, on motor neuron survival at 72 hr.

[3] = system: ALS-SOD1 (G93A) transgenic mice; test: Survival of ALS-SOD1 (G93A) transgenic mice; format: in vivo; details: G93A mutant of Cu,Zn superoxide dismutase transgene
Protocol: FIG. 13A: Transgenic mice (n=9) were injected intraperitoneally with 3 mg/kg/day of a low molecular weight (844.6) synthetic iron porphyrin. […] Treatment was continued until such time that signs of diaphragm weakness (labored breathing) necessitated sacrifice. A control group of transgenic mice was treated with vehicle only (phosphate-buffered saline). FIG. 13B: Transgenic mice were injected intraperitoneally with 1 mg/kg/day of a low molecular weight (844.6) synthetic iron porphyrin. Treatment began at day 60 prior to the onset of symptoms. A control group of transgenic mice was treated with vehicle only (phosphate-buffered saline).
Mice transgenic for the G93A mutated form of SOD1 are generally accepted as the standard model of motor neuron disease. […] This compound extended the mean survival time by 13 days (from 127 to 140 days) (FIG. 13A).
A group of G93A mice was treated with 1 mg/kg of FeTCPP intraperitoneally beginning at 60 days of age. As with the control group in FIG. 13A, none of the control group in this test survived past 132 days. However, the probability of survival at 140 days was about 37% and at approximately 180 days survival was still at 20%.

[4] = Ascorbate oxidation by MPs monitored at 266 nm; format: biochemical; details: MP 10 μM, 50 μM ascorbate, 0.1 M potassium phosphate pH 7.4, ± standard error, n=3
Protocol: In order to test the hypothesis that Mn(II)- or Fe(II)-porphyrins would be capable of carrying out two-electron reductions of peroxynitrite and thereby decreasing rather than increasing its reactivity, attempts were made to pre-reduce these transition metal-containing MPs prior to addition of peroxynitrite.
Table V. Ascorbate oxidation by MPs. MPs (10 μM) were added to stirred cuvettes containing 0.1 M potassium phosphate, pH 7.4 and 50 μM ascorbate. Ascorbate oxidation was monitored at 266 nm (ηm=17,700 M^−1cm^−1). Oxidation rates (±standard errors) were determined by fitting the initial linear portion of each curve and averaging the rates (n=3).

[5] = MP-catalyzed nitration of HPA: effect of pH, reductants and serum; format: biochemical
Protocol: Single additions of 100 μM peroxynitrite were made to reactions containing ascorbate or GSH. Three sequential additions of 100 μM peroxynitrite were made to all other reactions.
as §1, with “This” for “For nitration of GYA peptide (see FIG. 6), reaction solutions contained 2 mM GYA and 10 μM of the indicated MP in 1.4 ml of 0.1 M potassium phosphate, pH 7.4 at 37° C. Comparisons with two previously characterized nitration catalysts, human Cu,Zn superoxide dismutase (hCu,Zn SOD) and carbon dioxide, were made using 10 μM of SOD subunit and 25 mM potassium bicarbonate, respectively, which was pH-adjusted to 7.4. This”

O=C(O)c1ccc(-c2c3nc(c(-c4ccc(C(=O)O)cc4)c4ccc([n-]4)c(-c4ccc(C(=O)O)cc4)c4nc(c(-c5ccc(C(=O)O)cc5)c5ccc2[n-]5)C=C4)C=C3)cc1.[Zn+2] [ZnTBAP, Zinc (II) tetra-(4-benzoic acid)-porphyrin]
effect on nitration [1]: small but reproducible inhibitory effect
Rate Constants for MP-Catalyzed Decomposition of Peroxynitrite (pH 7.4, 37° C.) [2]: 5.3 × 10^3 ± 0.3 M^−1s^−1

O=C1O[C@H]([C@@H](O)CO)C(O)=C1O [ascorbate, ascorbic acid]
acceleration of peroxynitrite decomposition ([2]; ascorbate alone 150 μM, no MP): 16%

O=C=O [carbon dioxide]
enhancement of nitration yield [1]: 1.7 fold

Copper (II) meso-tetra-(4-sulfonatophenyl)-porphyrin [CuTSPP]
effect on nitration [1]: small but reproducible inhibitory effect

Iron (III) meso 5,10,15,20-tetrakis-(4-carboxymethyl-phenyl) porphyrin [FeTMeO-TCPP]
survival of cultured motor neurons deprived of growth factors (cultured motor neurons): prolong survival of cultured motor neurons
level of protection compared with FeTCPP (cultured motor neurons; 0.01 μM): twice the level of protection
level of protection compared with FeTCPP (cultured motor neurons; 0.1 μM): slightly greater level of protection
progression of motor neuron death in mice [3]: slow the progression of motor neuron death

Iron (III) meso-tetra-(4-sulfonatophenyl)-porphyrin [FeTSPP]
enhancement of nitration yield [1]: 5.3 fold
Rate Constants for MP-Catalyzed Decomposition of Peroxynitrite (pH 7.4, 37° C.) [2]: 3.3 × 10^5 ± 0.4 M^−1s^−1
Rate of Ascorbate Oxidation [4]: 4.58 ± 0.21 µM/min
enhancement of nitration yield at pH 9.1 ([5]; 8 mM HPA, 10 μM MP, 0.1 M sodium borate pH 9.1, versus non-catalyzed): 2.8 fold
effect of ascorbate and GSH on nitration enhancement ([5]; concentrations which eliminated non-catalyzed nitration): largely prevented the enhancement of nitration
effect of serum on nitration enhancement ([5]; fresh human serum 1:10 added prior to peroxynitrite): largely eliminated the nitration enhancement

B1: BDNF: brain-derived neurotrophic factor (protein, UniProt P23560 19-247, looked up)
Neurotrophic factor BDNF …: APMKEANIRGQGGLAYPGVRTHGTLESVNGPKAGSRGLTSLADTFEHVIEELLDEDQKVRPNEENNKDADLYTSRVMLSSQVPLEPPLLFLLEEYKNYLDAANMSMRVRRHSDPARRGELSVCDSISEWVTAADKKTAVDMSGGTVTVLEKVPVSKGQLKQYFYETKCNPMGYTKEGCRGIDKRHWNSQCRTTQSYVRALTMDSKKRIGWRFIRIDTSCVCTLTIKRGR
motor neurons that die between day 8 and day 16 (cultured motor neurons; long-term culture in the presence of BDNF): 80%
